Laboratory results published in the supplement of paper PMC11061612.

Assays:
Test in all cases: Bliss excess, mean over the matrix (fraction); higher = more synergy
[1] = test system: ME-180 (Cervical Carcinoma)
Summary of the method: (§1)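 After 24 hours at 37°C and 5% CO2 in 1536-well plates, cells in DMEM/F12 or RPMI plus 10% FBS received two-drug dose matrices for 72 hours. Viability came from CellTiter-Glo 2.0 luminescence and was scaled as inhibition, anchored at 0 by vehicle wells and at 1 by blank wells. Combination Emax is taken as the second-highest inhibition in the matrix, and Bliss excess as the observed combination effect less EA + EB − EA·EB, with EA and EB the single-agent effects.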

[2] = test system: OE33 (Esophageal Adenocarcinoma)
Summary of the method: as §1

[3] = test system: NCI-H522 (Lung Adenocarcinoma)
Summary of the method: as §1

[4] = test system: Ca-Ski (Cervical Carcinoma)
Summary of the method: as §1

[5] = test system: SW872 (Other Solid Carcinomas)
Summary of the method: as §1

[6] = test system: SNU-387 (Hepatocellular Carcinoma)
Summary of the method: as §1

[7] = test system: COLO-668 (Small Cell Lung Carcinoma)
Summary of the method: as §1

[8] = test system: A4-Fuk (B-Lymphoblastic Leukemia)
Summary of the method: as §1

[9] = test system: DU-145 (Prostate Carcinoma)
Summary of the method: as §1

[10] = test system: KMRC-1 (Kidney Carcinoma)
Summary of the method: as §1

[11] = test system: MV-4-11 (Acute Myeloid Leukemia)
Summary of the method: as §1

[12] = test system: MOLT-4 (T-Lymphoblastic Leukemia)
Summary of the method: as §1

[13] = test system: NCI-H1355 (Lung Adenocarcinoma)
Summary of the method: as §1

| SMILES | Bliss excess [1] | Bliss excess [2] | Bliss excess [3] | Bliss excess [4] | Bliss excess [5] | Bliss excess [6] | Bliss excess [7] | Bliss excess [8] | Bliss excess [9] | Bliss excess [10] | Bliss excess [11] | Bliss excess [12] | Bliss excess [13] |
| --- | --- | --- | --- | --- | --- | --- | --- | --- | --- | --- | --- | --- | --- |
| Cc1c2c(nn1C)CSCc1cc(n(C)n1)CSc1cc(c3ccccc3c1)OCCCc1c(C(=O)O)n(C)c3c-2c(Cl)ccc13 [AZD5991] + CS(=O)(=O)CCNCc1ccc(-c2ccc3ncnc(Nc4ccc(OCc5cccc(F)c5)c(Cl)c4)c3c2)o1 [Lapatinib] (first compound max 1 µM, 7x7, partner max 10 µM) | 0.0624 | -0.042 | 0.0118 | 0.0164 | 0.0129 | -0.028 | 0.0395 | 0.0199 | -0.034 | -0.0282 | 0.0343 | 0.0254 | 0.0127 |
| O=C(c1cc(Cc2n[nH]c(=O)c3ccccc23)ccc1F)N1CCN(C(=O)C2CC2)CC1 [Olaparib] + CC1(C)CCC(CN2CCN(c3ccc(C(=O)NS(=O)(=O)c4ccc(NCC5CCOCC5)c([N+](=O)[O-])c4)c(Oc4cnc5[nH]ccc5c4)c3)CC2)=C(c2ccc(Cl)cc2)C1 [Venetoclax] (first compound max 10 µM, 7x7, partner max 1 µM) | -0.0274 | -0.0457 | -0.0627 | -0.0069 | -0.023 | -0.0285 | -0.0261 | -0.0118 | -0.0254 | -0.0522 | 0.0475 | 0.124 | -0.0524 |
| O=C(c1cc(Cc2n[nH]c(=O)c3ccccc23)ccc1F)N1CCN(C(=O)C2CC2)CC1 [Olaparib] + COc1nnc2ccc(N3CCC(c4ccc(OCCN5CCN(C)C(=O)[C@H]5C)cc4)CC3)nn12 [AZD5153] (first compound max 10 µM, 7x7, partner max 1 µM) | -0.0279 | -0.057 | -0.0528 | -0.0179 | 0.0202 | -0.0768 | -0.0335 | -0.0412 | -0.0708 | -0.0556 | 0.008 | 0.023 | -0.11 |
| C[C@@H](Nc1cc(F)cc(F)c1)c1cc(C(=O)N(C)C)cc2c(=O)cc(N3CCOCC3)oc12 [AZD8186] + CC(=O)c1c(C)c2cnc(Nc3ccc(N4CCNCC4)cn3)nc2n(C2CCCC2)c1=O [Palbociclib] (first compound max 10 µM, 7x7, partner max 10 µM) | 0.0177 | 0.0115 | -0.0596 | -0.0285 | 0.0874 | -0.0459 | 0.0261 | 0.138 | 0.0147 | -0.0156 | 0.0769 | 0.0712 | 0.0321 |
| C[C@@H](Oc1cc(-c2cnn(C3CCNCC3)c2)cnc1N)c1c(Cl)ccc(F)c1Cl [Crizotinib] + Cn1cnc2c(F)c(Nc3ccc(Br)cc3Cl)c(C(=O)NOCCO)cc21 [Selumetinib] (first compound max 10 µM, 7x7, partner max 10 µM) | 0.0308 | -0.0199 | -0.0495 | 0.0464 | -0.0107 | 0.0212 | 0.0221 | -0.0021 | -0.0321 | -0.0191 | -0.0232 | -0.0843 | -0.0223 |
| CN(CCO)CC[C@H](CSc1ccccc1)Nc1ccc(S(=O)(=O)NC(=O)c2ccc(N3CCC([C@@H](O)c4ccccc4-c4ccc(Cl)cc4)CC3)cc2)cc1S(=O)(=O)C(F)(F)F [AZD4320] + CS(=O)(=O)CCNCc1ccc(-c2ccc3ncnc(Nc4ccc(OCc5cccc(F)c5)c(Cl)c4)c3c2)o1 [Lapatinib] (first compound max 1 µM, 7x7, partner max 10 µM) | 0.0726 | 0.0519 | -0.0206 | 0.127 | 0.0097 | 0.0496 | 0.0881 | -0.0065 | -0.028 | 0.0223 | 0.018 | 0.0886 | 0.0077 |
| Cc1nc(-c2cn3c(n2)-c2ccc(-c4cnn(C(C)(C)C(N)=O)c4)cc2OCC3)n(C(C)C)n1 [Taselisib] + O=C(Nc1ccc2[nH]nc(-c3ccncc3)c2c1)[C@@H]1CCN(CC(=O)N2CCN(c3ccc(-c4ncccn4)cc3)CC2)C1 [SCH772984] (first compound max 10 µM, 7x7, partner max 5 µM) | 0.0324 | 0.0674 | 0.057 | 0.0833 | 0.0712 | 0.122 | 0.0737 | 0.0883 | 0.0551 | -0.0377 | 0.177 | 0.13 | -0.0124 |
| C=CCn1c(=O)c2cnc(Nc3ccc(N4CCN(C)CC4)cc3)nc2n1-c1cccc(C(C)(C)O)n1 [AZD1775] + CCc1c2c(nc3ccc(O)cc13)-c1cc3c(c(=O)n1C2)COC(=O)[C@]3(O)CC [SN-38] (first compound max 1 µM, partner max 0.3 µM) | -0.0039 | -0.0694 | 0.0912 | 0.0285 | -0.0641 | -0.0303 | -0.0448 | -0.0617 | -0.0641 | -0.0817 | -0.0281 | 0.0188 | -0.0622 |
| CC1(C)CCC(CN2CCN(c3ccc(C(=O)NS(=O)(=O)c4ccc(NCC5CCOCC5)c([N+](=O)[O-])c4)c(Oc4cnc5[nH]ccc5c4)c3)CC2)=C(c2ccc(Cl)cc2)C1 [Venetoclax] + CS(=O)(=O)CCNCc1ccc(-c2ccc3ncnc(Nc4ccc(OCc5cccc(F)c5)c(Cl)c4)c3c2)o1 [Lapatinib] (first compound max 1 µM, 7x7, partner max 10 µM) | 0.0153 | -0.0315 | -0.0378 | -0.0249 | -0.0313 | -0.0514 | 0.0091 | -0.0406 | -0.0511 | -0.0584 | 0.0293 | 0.0967 | -0.0548 |
